From patent US12258338B2, “Modulators of the integrated stress response pathway” (EVOTEC INTERNATIONAL GMBH, priority 2019, dated 2025)
≈ marks a conversion by molar mass, not a printed value. Where two headings read alike, the source gives them in different places.

Legend:
[1] = biological target: T1, human ERG potassium channel (hERG) (Homo sapiens, UniProt Q12809); test: hERG channel tail current recording using in vitro Rapid ICE (automated patch-clamp, QPatch HTX); assay type: cell-based; settings: Table 26
T1 construct: expressed in transfected cells; host or cells: HEK293, stably transfected, tetracycline-inducible promoter
Protocol: Protocol—Measure of the Effect on hERG Channel by Tail Current Recording Using In Vitro Rapid ICE
The potency of the example compounds in inhibiting human ERG potassium channel (hERG) tail current was assessed in a recombinant HEK293 cell line stably transfected with hERG cDNA under an inducible promoter, using Rapid ICE (rapid ion channel electrophysiology) assay. Rapid ICE is an automated patch-clamp assay utilizing the QPatch HTX system (Sophion Bioscience A/S). Briefly, inducible HEK hERG cells were cultivated in minimum essential medium supplemented with 10% FBS, 1% non-essential amino acids, 1% sodium pyruvate, 2 mM 1-glutamine, 15 μg/mL blasticidin, and 100 μg/mL hygromycin. hERG channel expression induction was obtained by adding 10 μg/mL tetracycline for 24, 48, or 72 h before recordings.
On the day of the experiment, cells were detached with TrypLE and prepared to be loaded on the instrument. Cells were resuspended in 7 mL of Serum-Free Media containing 25 mM Hepes and soybean trypsin inhibitor and immediately placed in the cell storage tank of the machine. The composition of the extracellular buffer was (mM): NaCl 137, KCl 4, CaCl2 1.8, MgCl2 1.0, d-glucose 10, N-2-hydroxyethylpiperazine-N′-2-ethanesulfonic acid (HEPES) 10, pH 7.4 with 1 M NaOH. The composition of the intracellular solution was (mM): KCl 130, MgCl2 1.0, ethylene glycol-bis(β-aminoethyl ether)-N,N,N′,N′-tetraacetic acid (EGTA) 5, MgATP 5, HEPES 10, pH 7.2 with 1 M KOH. The voltage protocol included the following steps: step from −80 to −50 mV for 200 ms, +20 mV for 4.8 s, step to −50 mV for 5 s, then step to the holding potential of −80 mV. Compounds were dissolved in DMSO and diluted in extracellular buffer to achieve final test concentrations (0.3, 3, and 30 μM) in 0.3% DMSO. The voltage protocol was run and recorded continuously during the experiment. The vehicle, corresponding to 0.3% DMSO in extracellular buffer was then applied for 3 min, followed by the test substance in triplicate. The standard combined exposure time was 5 min. The average of tail current amplitude values recorded from four sequential voltage pulses was used to calculate for each cell the effect of the test substance by calculating the residual current (% control) compared with vehicle pretreatment. Data were reported as % inhibition for each concentration tested, and IC50 values were estimated using QPatch software. At least two cells were tested, and even more if results diverged.

ATF4 = test: HEK-ATF4 High Content Imaging assay (prevention of Tunicamycin induced ISR; ATF4 signal ratio between nucleus and cytoplasm); assay type: cell-based; settings: Homo sapiens; Wild-type HEK293 cells, Tunicamycin induced ISR, 6 h; read-out: IIEK-ATF4 Activity
Protocol: HEK-ATF4 High Content Imaging Assay
Example compounds were tested in the HEK-ATF4 High Content Imaging assay to assess their pharmacological potency to prevent Tunicamycin induced ISR. Wild-type HEK293 cells were plated in 384-well imaging assay plates at a density of 12,000 cells per well in growth medium (containing DMEM/F12, 10% FBS, 2 mM L-Glutamine, 100 U/mL Penicillin-100 μg/mL Streptomycin) and incubated at 37° C., 5% CO2. 24 h later, the medium was changed to 50 μL assay medium per well (DMEM/F12, 0.3% FBS, 2 mM L-Glutamine, 100 U/mL Penicillin-100 μg/mL Streptomycin). Example compounds were serially diluted in DMSO, spotted into intermediate plates and prediluted with assay medium containing 3.3 μM Tunicamycin to give an 11-fold excess of final assay concentration. In addition to the example compound testing area, the plates also contained multiples of control wells for assay normalization purposes, wells containing Tunicamycin but no example compounds (High control), as well as wells containing neither example compound nor Tunicamycin (Low control). The assay was started by transferring 5 μL from the intermediate plate into the assay plates, followed by incubation for 6 h at 37° C., 5% CO2. Subsequently, cells were fixed (4% PFA in PBS, 20 min at r.t.) and submitted to indirect ATF4 immunofluorescence staining (primary antibody rabbit anti ATF4, clone D4B8, Cell Signaling Technologies; secondary antibody Alexa Fluor 488 goat anti-rabbit IgG (H+L), Thermofisher Scientific). Nuclei were stained using Hoechst dye (Thermofisher Scientific), and plates were imaged on an Opera Phenix High Content imaging platform equipped with 405 nm and 488 nm excitation. Finally, images were analyzed using script based algorithms. The main readout HEK-ATF4 monitored the ATF4 signal ratio between nucleus and cytoplasm. Tunicamycin induced an increase in the overall ATF4 ratio signal, which was prevented by ISR modulating example compounds. In addition, HEK-CellCount readout was derived from counting the number of stained nuclei corresponding to healthy cells. This readout served as an internal toxicity control.

[2] = Thermodynamic (Equilibrium) solubility in selected buffer; assay type: physicochemical; settings: aqueous buffer, thermodynamic from solid, Table 25
Protocol: Protocol—Thermodynamic (Equilibrium) Solubility in Selected Buffer
Example compounds were tested in the Thermodynamic (Equilibrium) solubility in selected buffer assay. The test compound, in powder form, was weighted into a 4 mL glass vial and a calculated volume of selected medium was added to reach the target concentration of the solubility test (1 mg/mL). The solution was then stirred overnight at r.t. protected from the light. The solution was filtered through a 0.45 μm PTFE membrane at ambient temperature. An aliquot of the resulting filtrate was quantified using UPLC-UV method described below against a reference solution of the test compound, 0.8 mg/mL in DMSO. Media compositions: Phosphate buffer 50 mM (pH=2.0) […] of NaH2PO4, H2O in 200 mL of ultrapurified water adjusted at pH 2 with phosphoric acid 85%; Acetate buffer 50 mM (pH=5.5) 820 mg of anhydrous sodium acetate in 200 mL of ultrapurified water adjusted at pH 5.5 with acetic acid 99.8%; Phosphate buffer 50 mM (pH=7.4) 40.5 mL of Na2HPO4 0.1 M solution+9.5 mL of NaH2PO4 0.1 M solution. Analytical conditions: UPLC-UV-MS analyses were performed with a Waters Acquity UPLC HClass-PDA-QDa system using a reverse phase Acquity BEH C18 column (2.1 mm×50 mm, 1.7 μm; temperature: 40° C.) and a gradient of 10-95% B (A=0.1% formic acid in H2O; B=0.05% formic acid in ACN) over 1.8 min then 100% B for 0.8 min, with an injection volume of 0.4 μL at flow rate of 0.65 mL/min. UV chromatograms were recorded at 220 nm, 254 nm and 290 nm using a photo diode array detector. Mass spectra were recorded in the 150 to 900 M/Z range at a sampling rate of 10 scans per sec using a QDa detector. Data were integrated using Empower®3 software. Data Analysis: Equilibrium solubility of the test compound in the selected medium was calculated through the ratio of the surface area of the UV chromatographic peak of the compound in the filtrate to the surface of the UV chromatographic peak of the compound in the reference solution.

T1 sequence (Q12809 whole entry): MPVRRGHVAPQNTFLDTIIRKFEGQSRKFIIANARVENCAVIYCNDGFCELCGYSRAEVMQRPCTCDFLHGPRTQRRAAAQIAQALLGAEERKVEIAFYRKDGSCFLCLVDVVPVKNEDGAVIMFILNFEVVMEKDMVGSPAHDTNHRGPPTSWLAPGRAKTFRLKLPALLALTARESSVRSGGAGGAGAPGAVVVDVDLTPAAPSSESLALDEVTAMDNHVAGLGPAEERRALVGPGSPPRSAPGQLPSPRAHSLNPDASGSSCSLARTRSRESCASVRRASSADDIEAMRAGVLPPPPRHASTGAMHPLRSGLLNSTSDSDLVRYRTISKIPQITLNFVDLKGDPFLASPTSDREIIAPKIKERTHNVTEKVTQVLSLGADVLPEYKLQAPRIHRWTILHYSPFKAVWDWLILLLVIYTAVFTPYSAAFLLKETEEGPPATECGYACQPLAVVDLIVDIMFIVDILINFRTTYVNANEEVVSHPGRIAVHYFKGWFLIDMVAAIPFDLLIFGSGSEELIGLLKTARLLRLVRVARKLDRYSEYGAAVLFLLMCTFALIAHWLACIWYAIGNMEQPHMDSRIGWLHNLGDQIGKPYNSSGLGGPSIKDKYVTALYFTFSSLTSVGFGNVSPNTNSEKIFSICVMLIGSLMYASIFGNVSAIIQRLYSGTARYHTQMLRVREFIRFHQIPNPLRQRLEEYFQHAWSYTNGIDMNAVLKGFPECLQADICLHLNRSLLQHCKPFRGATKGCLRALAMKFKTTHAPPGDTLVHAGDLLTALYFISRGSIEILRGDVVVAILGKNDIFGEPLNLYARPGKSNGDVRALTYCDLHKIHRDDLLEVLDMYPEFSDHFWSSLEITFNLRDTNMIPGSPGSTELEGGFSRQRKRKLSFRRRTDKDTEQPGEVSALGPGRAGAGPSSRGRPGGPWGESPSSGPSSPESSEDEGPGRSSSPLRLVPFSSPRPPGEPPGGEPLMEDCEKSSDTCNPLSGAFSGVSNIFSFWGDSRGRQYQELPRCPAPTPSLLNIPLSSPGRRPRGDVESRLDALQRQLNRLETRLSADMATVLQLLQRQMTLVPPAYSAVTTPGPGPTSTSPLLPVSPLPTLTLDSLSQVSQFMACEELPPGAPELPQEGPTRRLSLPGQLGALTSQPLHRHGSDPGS

| Compound | IC50 [1] [nM] | IC50 (ATF4) [nM] | solubility ([2]; acetate buffer 50 mM, pH 5.5, read-out: Solubility (μg/mL) pH 5.5) [µg/mL] | solubility ([2]; phosphate buffer 50 mM, pH 2.0, read-out: Solubility (μg/mL) pH 2.0) [µg/mL] | solubility ([2]; phosphate buffer 50 mM, pH 7.4, read-out: Solubility (μg/mL) pH 7.4) [µg/mL] |
| --- | --- | --- | --- | --- | --- |
| CC(CC(F)(F)F)Oc1nnc([C@H]2CC[C@H](NC(=O)COc3ccc(Cl)c(F)c3)CN2)o1 (stereo partly drawn) [Example 64, 2-(4-chloro-3-fluorophenoxy)-N-[(3S,6R)-6-{5-[(4,4,4-trifluorobutan-2-yl)oxy]-1,3,4-oxadiazol-2-yl}piperidin-3-yl]acetamide] | > 5000 | 2000 to 15000 |  |  |  |
| CN1C[C@@H](NC(=O)COc2ccc(Cl)c(F)c2)CC[C@@H]1c1nnc(-c2ccc(Cl)cc2)o1 [Example 45, 2-(4-chloro-3-fluorophenoxy)-N-[(3S,6R)-6-[5-(4-chlorophenyl)-1,3,4-oxadiazol-2-yl]-1-methylpiperidin-3-yl]acetamide] | 1 to 1000 | 1 to 500 |  |  |  |
| O=C(COc1ccc(C(F)(F)F)c(Cl)c1)N[C@H]1CC[C@H](c2nnc([C@H]3C[C@@H](OC(F)(F)F)C3)o2)NC1 [Example 10, 2-[3-chloro-4-(trifluoromethyl)phenoxy]-N-[(3S,6R)-6-{5-[(1s,3s)-3-(trifluoromethoxy)cyclobutyl]-1,3,4-oxadiazol-2-yl}piperidin-3-yl]acetamide] | 1000 to 5000 | 1 to 500 |  |  |  |
| O=C(COc1ccc(Cl)c(F)c1)N[C@H]1CC[C@H](c2nnc(OCCOC3CC3(F)F)o2)NC1 (stereo partly drawn) [Example 87, 2-(4-chloro-3-fluorophenoxy)-N-[(3S,6R)-6-{5-[2-(2,2-difluorocyclopropoxy)ethoxy]-1,3,4-oxadiazol-2-yl}piperidin-3-yl]acetamide] | 1000 to 5000 | 1 to 500 |  |  |  |
| COCCCOc1nnc([C@H]2CC[C@H](NC(=O)COc3ccc(Cl)c(F)c3)CN2)o1 [Example 79, 2-(4-chloro-3-fluorophenoxy)-N-[(3S,6R)-6-[5-(3-methoxypropoxy)-1,3,4-oxadiazol-2-yl]piperidin-3-yl]acetamide] | > 5000 | 2000 to 15000 |  |  |  |
| C[C@@H](Oc1ccc(Cl)cc1)C(=O)N[C@H]1CC[C@H](c2nnc(-c3ccc(C(F)(F)F)cc3)o2)NC1 (single isomer, unassigned) [Example 106] | 1000 to 5000 | 2000 to 15000 |  |  |  |
| O=C(COc1ccc(Cl)c(F)c1)N[C@H]1CC[C@H](c2nnc(-c3ccc(Cl)cc3)o2)NC1 [Example 40, 2-(4-chloro-3-fluorophenoxy)-N-[(3S,6R)-6-[5-(4-chlorophenyl)-1,3,4-oxadiazol-2-yl]piperidin-3-yl]acetamide] | 1 to 1000 | 1 to 500 |  |  |  |
| CN1C[C@H](NC(=O)COc2ccc(Cl)c(F)c2)CC[C@H]1c1nnc(-c2ccc(Cl)cc2)o1 [Example 44, 2-(4-chloro-3-fluorophenoxy)-N-[(3R,6S)-6-[5-(4-chlorophenyl)-1,3,4-oxadiazol-2-yl]-1-methylpiperidin-3-yl]acetamide] | 1 to 1000 | 1 to 500 |  |  |  |
| O=C(COc1ccc(Cl)c(F)c1)N[C@H]1CC[C@H](c2nnc(OCC3CC3(F)F)o2)NC1 (stereo partly drawn) [Example 66, 2-(4-chloro-3-fluorophenoxy)-N-[(3S,6R)-6-{5-[(2,2-difluorocyclopropyl)methoxy]-1,3,4-oxadiazol-2-yl}piperidin-3-yl]acetamide] | 1000 to 5000 | 500 to 2000 |  |  |  |
| O=C(COc1ccc(Cl)c(F)c1)N[C@H]1CC[C@H](c2nnc(-c3ccc(C(F)(F)F)cc3)o2)NC1 [Example 2, 2-(4-chloro-3-fluorophenoxy)-N-[(3S,6R)-6-{5-[4-(trifluoromethyl)phenyl]-1,3,4-oxadiazol-2-yl}piperidin-3-yl]acetamide] | 1 to 1000 | 1 to 500 |  |  |  |
| O=C(COc1ccc(Cl)c(F)c1)N[C@H]1CC[C@H](c2nnc(OCCOC3CC3)o2)NC1 [Example 80, 2-(4-chloro-3-fluorophenoxy)-N-[(3S,6R)-6-[5-(2-cyclopropoxythoxy)-1,3,4-oxadiazol-2-yl]piperidin-3-yl]acetamide] | > 5000 | 1 to 500 |  |  |  |
| CN1C[C@@H](NC(=O)COc2ccc(Cl)c(F)c2)CC[C@@H]1c1nnc(OCCOC(F)(F)F)o1 [Example 101, 2-(4-chloro-3-fluorophenoxy)-N-[(3S,6R)-1-methyl-6-{5-[2-(trifluoromethoxy)ethoxy]-1,3,4-oxadiazol-2-yl}piperidin-3-yl]acetamide] | > 5000 | 1 to 500 |  |  |  |
| O=C(COc1ccc(Cl)c(F)c1)N[C@H]1CC[C@H](c2nnc(OCCOC3CCC3)o2)NC1 [Example 82, 2-(4-chloro-3-fluorophenoxy)-N-[(3S,6R)-6-[5-(2-cyclobutoxyethoxy)-1,3,4-oxadiazol-2-yl]piperidin-3-yl]acetamide] | > 5000 | 1 to 500 |  |  |  |
| Cc1ccc(-c2nnc([C@H]3CC[C@H](NC(=O)COc4ccc(Cl)c(F)c4)CN3)o2)cn1 [Example 34, 2-(4-chloro-3-fluorophenoxy)-N-[(3S,6R)-6-[5-(6-methylpyridin-3-yl)-1,3,4-oxadiazol-2-yl]piperidin-3-yl]acetamide] |  | 500 to 2000 | 239 (≈ 536 µM) | 994 (≈ 2230 µM) | 153 (≈ 343 µM) |
| CC(Oc1ccc(Cl)cc1)C(=O)N[C@H]1CC[C@H](c2nnc(-c3ccc(C(F)(F)F)cc3)o2)NC1 (stereo partly drawn) [Example 4, 2-(4-chlorophenoxy)-N-[(3S,6R)-6-{5-[4-(trifluoromethyl)phenyl]-1,3,4-oxadiazol-2-yl}piperidin-3-yl]propanamide] | 1 to 1000 |  |  |  |  |
